The results in this text go back to patent US20240025903A1, “Bicyclic Compounds and Uses Thereof for the Treatment of Diseases” (Athira Pharma, Inc., priority 2020, published 2024).

The term Papp denotes a coefficient for how fast a substance crosses the barrier. Broadly, the solubility is how much of the substance goes into solution per volume.

Data set [1] is described as follows: Parallel artificial membrane permeability assay (PAMPA). The settings on record: PBS, room temperature. In kind it is in vitro ADME. On the procedure: Bioavailable drugs must permeate the cellular membranes of the lining of the digestive tract. To estimate the penetrability of exemplary compounds, the in vitro parallel artificial membrane permeability assay (PAMPA) was utilized.
Test compounds must have a standard curve in the final read plate to determine partitioned concentration of each drug. A 6-point standard curve was prepared for each compound from 0 to 200 μM in phosphate-buffered saline (PBS).
Test compound solution (300 μL in PBS) was added to the donor (bottom) well of the PAMPA plate in 5 replicates and PBS vehicle (200 μL) was added to the acceptor (top) wells of appropriate wells to match the loading of the donor plate. The bottom and top of the PAMPA plates were then sandwiched together. The PAMPA plates were then incubated at room temperature for 5 hours. After incubation, 150 μL of donor solution was added to a UV compatible plate containing the corresponding standard curve. 150 μL of acceptor well solution was added adjacent to the corresponding standard curve and donor well samples for that compound. The plate was then read using a UV plate reader.
Permeability and membrane retention were then calculated based on the following formulas:
Permeability (cm/s): (Pe)(cm/s)={−ln [1−CA(t)/Ceq]}/[A*(1/VD+1/VA)*t] (equation 1) • where: • A=filter area (0.3 cm^2); • VD=donor well volume (0.3 mL); • VA=acceptor well volume (0.2 mL); • t=incubation time (seconds); • CA(t)=compound concentration in acceptor well at time t; • CD(t)=compound concentration in donor well at time t; and • Ceq=[CD(t)*VD+CA(t)*VA]/(VD+VA).
Membrane Retention (R)=1−[CD(t)*VD+CA(t)*VA]/(C0*VD) (equation 2) • where: • CD(t), VD, CA(t), and VA are as defined for equation 1, and • C0=initial concentration in donor well (200 uM).

Data set [2] deals with MDCK cells. Kind of data set: Cell scattering behavior assay. In kind it is cell-based. Also on record: key: − indicates that the compound failed to significantly promote cell scattering behavior; + indicates maximum potency at or above 100 nM; ++ indicates maximum potency at or above 10 nM; +++ indicates maximum potency at or above 1 nM; ++++ indicates maximum potency at or above 0.1 nM. The settings on record: 5 ng/mL HGF, 24 hours, normalized particle count vs HGF alone. The protocol: MDCK cells were grown under normal conditions and observed to spontaneously form tight colonies as they proliferate. MDCK cells respond to HGF treatment by moving away from each other (scattering), which is quantified to assess the amount of HGF/MET activation in the cell population. In this experiment, MDCK cells were plated in a 96-well format, treated with HGF and exemplary compounds, fluorescently stained, imaged in large fields, and scattering behavior was quantified. Quantification was determined by analyzing the number of continuous groups of cells compared to the total stained area imaged (normalized particle counts).
MDCK cells were plated at low density in black-walled imaging plates and allowed to attach overnight at 37° C. and 5% CO2 in DMEM+10% FBS. Cells were then starved to 2 hours in DMEM without FBS (“starve media”). Samples containing exemplary compounds were prepared in DMEM without FBS and included 5 ng/mL HGF protein (“treatment media”). A control curve was also prepared for each plate using HGF concentrations of 0, 5, 10, and 20 ng/mL. Starve media was replaced with treatment media and cells were incubated for 24 hours at 37° C. and 5% CO2.
After incubation, cells were fixed by replacing treatment media with cold ethanol and incubating for 20 minutes at 4° C. Cells were then rehydrated by washing with PBS and then with stain solution (fluorescent wheat germ agglutinin; WGA488 at 20 μg/mL in PBS). Cells were incubated with stain solution 30 minutes at room temperature after which stain solution was replaced with fresh PBS.
Fields of cells were imaged using an iCyte high content imager in the green wavelength. Images were converted to binary and analyzed for particle size and particle count. For the purpose of analysis, an individual cell touching no other cells or separated colonies of cells were identified as particles, and particle counts were normalized by the total signal area to account for differences in cell number. […] Compound potency was assessed by statistical increase in normalized particle count compared to HGF treatment alone.

Data set [3] deals with T1, HGF/MET system (Homo sapiens, UniProt P08581+P14210).
T1 construct: HEK293 cells were prepared by passage into 6-well multi-plates; endogenous in cells; host or cells: HEK293
In words: Phospho-MET ELISA. The format is cell-based. Also on record: key: − indicates that the compound failed to significantly augment MET phosphorylation; + indicates maximum potency at or above 100 nM; ++ indicates maximum potency at or above 10 nM; +++ indicates maximum potency at or above 1 nM; ++++ indicates maximum potency at or above 0.1 nM. The conditions noted are these: HEK293 cells, 1 ng/mL recombinant HGF, 15 minutes, pMET ELISA. The protocol: Compounds were screened for potency towards the HGF/MET system using phospho-MET (pMET) ELISA kits (Cell Signaling). pMET levels were detected in samples having low (1 ng/mL) and high (10 ng/mL) concentrations of HGF.
HEK293 cells were prepared by passage into 6-well multi-plates and grown at 37° C. at 5% CO2 in DMEM+10% FBS until approximately 90% confluent. Cells were then starved for at least 8 hours in serum-free growth media.
Exemplary compounds were prepared in DMEM+0.1% FBS, diluted and added to treatment media with 1 ng/mL recombinant HGF protein (R&D Systems). Cells were incubated in triplicate at 37° C. and 5% CO2 for 15 minutes. Samples were then treated with 180 μL ice-cold RIPA (radioimmunoprecipitation assay) buffer and cells were lysed on ice for 15 minutes. Lysates were cleared by centrifugation at 16,000-g for 15 minutes and the supernatant was retained. Samples were normalized using a BCA assay of lysates to determine protein concentrations across the samples.
Between 50 and 100 μg total protein lysate was loaded into ELISA wells in pMET Sandwich ELISA kit (Cell Signaling Catalog #7227C), ensuring equal protein load in each well. The ELISA was processed according to manufacturer's instructions. After color developed, absorbance was read on an optical plate reader at 450 nm.
Potency measurements were determined using peak efficacy by scaling test compound dose treatments along a scale of 1-10 between 1 ng/mL and 10 ng/mL HGF doses according to the following formula: […]
where y is the normalized data-point, x is the raw data point, A is the mean HGF at 1 ng/mL, and B is the mean HGF at 10 ng/mL.
(In general: An ELISA detects its analyte on a solid surface through an enzyme-linked reagent.)

Data set [4] in a line: Turbidimetric solubility assay. In kind it is physicochemical. The settings on record: aqueous buffer, kinetic from dmso stock, PBS, 37° C., absorbance 620 nm. On the procedure:
Aqueous solubility is a critical drug property that helps to predict bioavailability. Generally, compounds with aqueous solubility <100 μg/ml are poor drugs.
To assess a compound's solubility by turbidity, test compounds were first dissolved in organic solvent (DMSO) at a concentration of 10 mM. This compound solution was then diluted in aqueous solvent (PBS) in a dilution series from […] in a 96-well assay plate. Solutions were incubated at 37° C. for 2 hours.
In wells with test compounds over their solubility limit, the compound will precipitate, effectively blocking the passage of light and thus increasing the absorbance signal of UV light at a wavelength of 620 nm. Compounds were considered insoluble at a tested concentration if turbidity raises the absorbance more than 10% above control reads.

Data set [5] concerns HepG2 cells. In words: Cytotoxicity assay (LDH release). The conditions noted are these: 48 hours, 0.1 to 100 μM. The format is cell-based. The protocol:
This experiment was designed to obtain a preliminary assessment of cytotoxicity.
HepG2 cells were plated in 96-well cell culture plates and allowed to attach overnight at 37° C., 5% CO2 in EMEM+10% FBS. Treatments were made in complete media (EMEM+10% FBS) and included a dilution series of test compounds from 0.1 to 100 μM. Known cytotoxin cerivastatin was used as a positive assay control and prepared at a final concentration of 0.5 μM.
Growth media was replaced with treatment media (EMEM+10% FBS containing test compound dissolved in DMSO) and cells were incubated with test compounds for 48 hours. At the end of the incubation period, supernatant media from each well was transferred to a new plate and LDH assay working solution was added. LDH assay solution undergoes a colorimetric reaction in proportion to the amount of lactate dehydrogenase (an intracellular protein that was only found in the media in the presence of lysed cells) in the media. Color reaction was quantified by measurement of absorbance at a wavelength of 490 nm.
The signal range of the assay was determined by no manipulation in a negative control treatment and full lysis of all cells in a lysis control sample. Compounds that increase the level of cytotoxicity more than 20% above negative control samples were considered cytotoxic in this assay.
In general terms: LDH in the medium is a marker of cell lysis.

T1 sequence (P08581 308-1390 limits assumed): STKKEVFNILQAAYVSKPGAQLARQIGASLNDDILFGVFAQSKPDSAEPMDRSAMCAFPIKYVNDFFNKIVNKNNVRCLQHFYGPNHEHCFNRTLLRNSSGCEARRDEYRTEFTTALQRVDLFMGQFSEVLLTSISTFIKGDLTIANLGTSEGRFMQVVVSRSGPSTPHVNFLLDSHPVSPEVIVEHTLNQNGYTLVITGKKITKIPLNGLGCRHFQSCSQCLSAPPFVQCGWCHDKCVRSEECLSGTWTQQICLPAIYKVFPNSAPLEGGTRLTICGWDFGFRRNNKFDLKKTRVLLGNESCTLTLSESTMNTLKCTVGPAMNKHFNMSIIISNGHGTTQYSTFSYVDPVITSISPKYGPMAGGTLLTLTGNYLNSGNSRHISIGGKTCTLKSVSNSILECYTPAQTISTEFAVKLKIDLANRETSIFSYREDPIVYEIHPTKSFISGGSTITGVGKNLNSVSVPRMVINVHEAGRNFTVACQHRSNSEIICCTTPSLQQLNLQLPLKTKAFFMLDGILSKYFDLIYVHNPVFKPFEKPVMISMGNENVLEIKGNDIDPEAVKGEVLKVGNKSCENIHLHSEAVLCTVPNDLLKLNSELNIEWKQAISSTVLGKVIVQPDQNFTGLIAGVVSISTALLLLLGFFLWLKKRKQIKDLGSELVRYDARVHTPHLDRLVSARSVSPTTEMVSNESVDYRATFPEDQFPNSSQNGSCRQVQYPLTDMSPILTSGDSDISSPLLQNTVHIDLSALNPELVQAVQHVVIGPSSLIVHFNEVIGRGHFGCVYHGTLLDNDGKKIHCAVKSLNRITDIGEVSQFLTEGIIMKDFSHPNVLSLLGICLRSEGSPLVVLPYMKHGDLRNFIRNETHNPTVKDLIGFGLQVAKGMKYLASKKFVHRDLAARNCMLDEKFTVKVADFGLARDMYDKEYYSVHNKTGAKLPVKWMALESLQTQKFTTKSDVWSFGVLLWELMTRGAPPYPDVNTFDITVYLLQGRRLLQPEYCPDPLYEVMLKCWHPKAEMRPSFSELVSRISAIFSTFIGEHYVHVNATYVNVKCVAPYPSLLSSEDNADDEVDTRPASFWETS
T1 sequence (P14210 32-494 limits assumed): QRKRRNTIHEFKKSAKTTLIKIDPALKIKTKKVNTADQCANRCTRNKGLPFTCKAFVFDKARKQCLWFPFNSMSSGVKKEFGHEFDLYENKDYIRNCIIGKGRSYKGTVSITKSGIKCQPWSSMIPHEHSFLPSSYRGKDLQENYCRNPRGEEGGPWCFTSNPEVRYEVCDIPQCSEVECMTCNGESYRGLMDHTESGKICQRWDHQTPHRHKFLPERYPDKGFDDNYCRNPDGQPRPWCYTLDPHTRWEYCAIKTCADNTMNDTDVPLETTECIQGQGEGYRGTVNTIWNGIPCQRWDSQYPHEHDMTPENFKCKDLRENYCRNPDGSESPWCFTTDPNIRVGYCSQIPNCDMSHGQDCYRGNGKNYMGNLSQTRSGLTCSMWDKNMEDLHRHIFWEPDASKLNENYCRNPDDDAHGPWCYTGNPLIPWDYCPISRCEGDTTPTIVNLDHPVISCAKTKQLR

As to `CCC(C)CN1CC2N(Cc3ccc(OC(F)F)cc3)CCC(=O)N2C(CC(C)C)C1=O` (stereo not shown) [Compound 53, 1-(4-(difluoromethoxy)benzyl)-6-isobutyl-8-(2-methylbutyl)hexahydro-4H-pyrazino[1,2-a]pyrimidine-4,7(6H)-dione], in data set [1], the apparent permeability (Papp) at 5 h, 200 µM was less than 2 ×10⁻⁶ cm/s. Moreover, the “Potency (cell scattering)” value in data set [2] is “+++ (+++ indicates maximum potency at or above 1 nM)”. For the same compound, the “Potency (augmentation of MET phosphorylation)” value in data set [3] is listed as “++ (++ indicates maximum potency at or above 10 nM)”. The compound also came in with a solubility at 2 h in data set [4] of more than 100 µM. Moreover, in data set [5], the Cytotoxicity result was “+++ (+++ indicates non-toxic at 10 μM)”.

Turning to `CC1C(=O)N(CCC2CCCC2)CC2N(Cc3ccc(C(F)(F)F)c(Cl)c3)CCC(=O)N12` (stereo not shown) [Compound 54], the apparent permeability coefficient (Papp) at 5 h, 200 µM in data set [1] is less than 2 ×10⁻⁶ cm/s. Also, the “Potency (cell scattering)” value in data set [2] is listed as “−”. Also, the “Potency (augmentation of MET phosphorylation)” value in data set [3] is reported as “−”. Also, the solubility at 2 h in data set [4] was more than 30 µM. In data set [5], the Cytotoxicity result is given as “+++ (+++ indicates non-toxic at 10 μM)”.
